Data published in patent US20200281944A1, “Combinations Of Lanosterol Or 25-Hydroxycholesterol Including Derivatives Thereof Useful In The Treatment Of Lens Disorders” (priority 2017, published 2020).
Counter-ions that a name gives are not always drawn. Values belong to the molecule of their own block, whether it stands above or below them.

Assays:
[1] = tested on: lens opacification; details: cell cultures, in the presence of guanidine; cited from earlier work
[2] = tested on: presbyopia; details: cited from earlier work

Structure (SMILES): NCCC(=O)N[C@@H](Cc1c[nH]cn1)C(=O)O [L-carnosine, β-alanyl-L-histidine]
prevention of lens opacification [1]: 50 to 60%

Structure (SMILES): C[N+](C)(C)CCOC(=O)CCCC[C@@H]1CCSS1 [EV06, Lipoic acid choline ester]
binocular near acuity ([2]; Lipoic acid choline ester 1.5%): improved
distance corrected near vision acuity (DCNVA) efficacy measures ([2]; in vivo): improvement in all

melting point: 204 to 205 °C
Structure (SMILES): CC(C)=CCC[C@@H](C)[C@H]1CC[C@@]2(C)C3=C(CC[C@]12C)[C@@]1(C)CC[C@H](OP(=O)(O)O)C(C)(C)[C@@H]1CC3 (as salt: phosphate)
